Laboratory results reported in patent US9670193B2 (Novartis AG, priority 2011, dated 2017).

Key:
Type in all cases: biochemical
Human recombinant HDAC4 [1] = target: T1, Human recombinant HDAC4 (Homo sapiens (Human), UniProt P56524); assay: Earlier version of HDAC4 assay; settings: 10 μM substrate, test concentrations 0.003 μM to 100 μM
Experimental: Description of Earlier Version of HDAC4 Assay
Human recombinant HDAC4 was expressed in full length form (aa 2-1084) in Sf9 insect cells (obtained from ATCC) using baculovirus generated with Bac-to-Bac system (Invitrogen). Test compounds were serially diluted to reach final test concentrations from 0.003 μM to 100 μM. HDAC4 and test compounds were incubated in 25 mM Tris buffer pH 8.0 containing 137 mM NaCl, 2.7 mM KCl, 1 mM MgCl2 and 0.05% (w/v) bovine serum albumine for 2 hours at room temperature in presence of 10 μM of acetyl-Gly-Ala-Lys(ε-trifluoroacetyl)-AMC (AMC=7-amino-4-methyl coumarin) in a final volume of 200 μl. Control wells with HDAC4 only (positive control) and without HDAC4 (negative control) were included on the microplate. Bovine trypsin (10 μl of a 0.4 mg/ml solution) was added and the plate incubated for additional 15 minutes at room temperature. The plate was placed in a fluorescence microplate reader, and read at an excitation wavelength of 360 nm and an emission wavelength of 450 nm with a cut-off filter of 435 nm. Fluorescence values for all wells containing HDAC4 (positive control and wells with test compound) were corrected by subtracting negative control fluorescence values, and IC50 values were calculated by fitting the dose-response curves to a 4-parameter logistic function.

Human recombinant HDAC4 [2] = target: T1, Human recombinant HDAC4; assay: HDAC4 assay (Test 1), fluorescence, acetyl-Gly-Ala-Lys(ε-trifluoroacetyl)-AMC substrate; settings: 5 μM substrate, 2 hours at room temperature
Experimental: Test 1: HDAC4 Assay Description
(§1) Human recombinant HDAC4 was expressed in full length form (aa 2-1084) in Sf9 insect cells (obtained from ATCC) using baculovirus generated with Bac-to-Bac system (Invitrogen). Test compounds were serially diluted to reach final test concentrations from 0.000128 μM to 10 μM. HDAC4 and test compounds were incubated in 25 mM Tris buffer pH 8.0 containing 137 mM NaCl, 2.7 mM KCl, 1 mM MgCl2, 0.05% (w/v) bovine serum albumine and 0.005% (v/v) Triton-X-100 for 2 hours at room temperature in presence of 5 μM of acetyl-Gly-Ala-Lys(ε-trifluoroacetyl)-AMC (AMC=7-amino-4-methyl coumarin) in a final volume of 9 μl. Control wells with HDAC4 only (positive control) and without HDAC4 (negative control) were included on the microplate. Bovine trypsin (4.5 μl of a 300 nM solution) was added and the plate incubated for additional 15 minutes at room temperature. The plate was placed in a fluorescence microplate reader, and read at an excitation wavelength of 360 nm and an emission wavelength of 450 nm with a 10 nm bandpath. Fluorescence values for all wells containing HDAC4 (positive control and wells with test compound) were corrected by subtracting negative control fluorescence values, and IC50 values were calculated by fitting the dose-response curves to a 4-parameter logistic function.

[3] = target: Human recombinant full length HDAC1 (Homo sapiens (Human), UniProt Q13547); assay: HDAC1 assay (Test 2), acetyl-Gly-Ala-Lys(acetyl)-AMC substrate; settings: 5 μM substrate, 2 hours at room temperature
Experimental: as §1
Test 2: HDAC1 Assay Description
A similar assay procedure as described in Test 1 was used for HDAC1. Human recombinant full length HDAC1 expressed in a baculovirus expression system was purchased from BPS BioSciences (San Diego, Calif., U.S.A.). The substrate used in the […] assay was 5 μM of acetyl-Gly-Ala-Lys(acetyl)-AMC.

[4] = target: Human recombinant full length HDAC6 (Homo sapiens (Human), UniProt Q9UBN7); assay: HDAC6 assay (Test 3), acetyl-Gly-Ala-Lys(acetyl)-AMC substrate; settings: 5 μM substrate, 2 hours at room temperature
Experimental: as §1
Test 3: HDAC6 Assay Description
A similar assay procedure as described in Test 1 was used for HDAC6. Human recombinant full length HDAC6 expressed in a baculovirus expression system was purchased from BPS BioSciences (San Diego, Calif., U.S.A.). The substrate used in the […] assay was 5 μM of acetyl-Gly-Ala-Lys (acetyl)-AMC.

Sequence of Human recombinant full length HDAC6 (Q9UBN7 whole entry): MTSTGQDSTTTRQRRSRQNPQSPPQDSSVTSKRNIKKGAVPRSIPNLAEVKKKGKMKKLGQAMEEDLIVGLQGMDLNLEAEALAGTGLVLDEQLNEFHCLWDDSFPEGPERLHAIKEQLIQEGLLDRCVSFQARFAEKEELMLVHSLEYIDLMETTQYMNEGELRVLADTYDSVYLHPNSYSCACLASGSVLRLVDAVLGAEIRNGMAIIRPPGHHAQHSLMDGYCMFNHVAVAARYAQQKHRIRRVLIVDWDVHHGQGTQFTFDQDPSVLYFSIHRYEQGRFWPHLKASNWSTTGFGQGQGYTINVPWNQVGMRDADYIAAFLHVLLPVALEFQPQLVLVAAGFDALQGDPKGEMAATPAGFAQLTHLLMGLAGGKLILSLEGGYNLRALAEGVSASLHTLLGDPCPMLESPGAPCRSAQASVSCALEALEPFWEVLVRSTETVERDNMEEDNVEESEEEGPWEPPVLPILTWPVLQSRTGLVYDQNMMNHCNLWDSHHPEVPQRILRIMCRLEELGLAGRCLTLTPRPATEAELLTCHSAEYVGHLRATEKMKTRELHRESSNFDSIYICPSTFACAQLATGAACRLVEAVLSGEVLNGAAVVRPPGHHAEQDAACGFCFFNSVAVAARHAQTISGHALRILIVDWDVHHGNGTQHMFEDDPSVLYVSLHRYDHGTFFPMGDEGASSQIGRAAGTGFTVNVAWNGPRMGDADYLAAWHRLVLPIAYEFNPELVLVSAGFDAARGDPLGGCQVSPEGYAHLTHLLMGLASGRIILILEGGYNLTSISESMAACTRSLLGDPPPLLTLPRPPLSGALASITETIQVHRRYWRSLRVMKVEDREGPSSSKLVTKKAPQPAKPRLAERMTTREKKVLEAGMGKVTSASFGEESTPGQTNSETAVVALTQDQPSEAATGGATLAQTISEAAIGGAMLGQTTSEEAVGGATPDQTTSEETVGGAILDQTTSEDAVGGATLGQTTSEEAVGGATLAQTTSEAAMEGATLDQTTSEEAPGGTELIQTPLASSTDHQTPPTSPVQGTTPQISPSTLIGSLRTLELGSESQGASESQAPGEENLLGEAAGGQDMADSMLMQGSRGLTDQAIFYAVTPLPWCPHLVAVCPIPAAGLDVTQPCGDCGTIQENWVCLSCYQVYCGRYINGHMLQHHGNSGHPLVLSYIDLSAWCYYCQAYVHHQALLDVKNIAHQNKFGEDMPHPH
Sequence of Human recombinant full length HDAC1 (Q13547 whole entry): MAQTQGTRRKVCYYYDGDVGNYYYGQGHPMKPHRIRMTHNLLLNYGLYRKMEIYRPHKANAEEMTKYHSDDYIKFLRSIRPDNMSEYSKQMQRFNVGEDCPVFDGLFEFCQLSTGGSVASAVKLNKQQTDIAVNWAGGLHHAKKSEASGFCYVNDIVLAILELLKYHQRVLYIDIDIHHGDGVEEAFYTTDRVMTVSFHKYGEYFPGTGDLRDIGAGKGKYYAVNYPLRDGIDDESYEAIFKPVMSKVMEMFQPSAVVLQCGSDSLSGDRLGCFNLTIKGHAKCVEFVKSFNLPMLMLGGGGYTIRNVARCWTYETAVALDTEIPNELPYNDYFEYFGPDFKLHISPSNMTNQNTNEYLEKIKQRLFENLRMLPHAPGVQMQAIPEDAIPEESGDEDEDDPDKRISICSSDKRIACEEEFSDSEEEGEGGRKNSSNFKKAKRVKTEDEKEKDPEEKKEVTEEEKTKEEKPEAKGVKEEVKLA
T1 sequence (P56524 2-1084): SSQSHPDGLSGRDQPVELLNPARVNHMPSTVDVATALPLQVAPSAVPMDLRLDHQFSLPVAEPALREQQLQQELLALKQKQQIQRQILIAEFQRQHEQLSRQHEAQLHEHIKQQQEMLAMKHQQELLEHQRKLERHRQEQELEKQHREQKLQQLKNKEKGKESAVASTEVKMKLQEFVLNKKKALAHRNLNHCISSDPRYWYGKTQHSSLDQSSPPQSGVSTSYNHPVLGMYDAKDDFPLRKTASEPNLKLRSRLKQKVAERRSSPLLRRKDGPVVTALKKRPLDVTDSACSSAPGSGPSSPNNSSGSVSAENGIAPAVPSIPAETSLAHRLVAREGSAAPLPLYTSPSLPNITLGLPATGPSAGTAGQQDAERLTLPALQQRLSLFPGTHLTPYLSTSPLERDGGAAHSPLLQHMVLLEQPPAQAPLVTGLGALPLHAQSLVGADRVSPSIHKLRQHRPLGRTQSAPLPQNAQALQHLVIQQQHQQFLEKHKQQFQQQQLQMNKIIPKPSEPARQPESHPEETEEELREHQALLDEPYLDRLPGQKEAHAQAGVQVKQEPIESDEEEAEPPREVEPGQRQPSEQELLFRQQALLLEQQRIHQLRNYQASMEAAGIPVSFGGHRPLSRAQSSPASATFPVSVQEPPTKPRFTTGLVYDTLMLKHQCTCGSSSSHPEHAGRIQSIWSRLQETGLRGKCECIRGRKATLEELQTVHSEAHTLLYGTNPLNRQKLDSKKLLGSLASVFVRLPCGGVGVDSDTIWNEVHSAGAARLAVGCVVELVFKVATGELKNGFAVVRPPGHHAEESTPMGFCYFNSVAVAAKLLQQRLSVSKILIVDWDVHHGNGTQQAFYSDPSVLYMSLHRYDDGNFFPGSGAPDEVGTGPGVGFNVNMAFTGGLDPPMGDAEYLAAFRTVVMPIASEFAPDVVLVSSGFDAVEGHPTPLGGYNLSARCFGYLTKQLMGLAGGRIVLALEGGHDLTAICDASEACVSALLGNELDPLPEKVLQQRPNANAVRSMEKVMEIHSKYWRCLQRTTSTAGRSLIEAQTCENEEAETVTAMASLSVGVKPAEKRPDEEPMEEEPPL

C[C@@H](NC(=O)c1cnc(-c2noc(C(F)(F)F)n2)nc1)c1ccccc1 [(R)—N-(1-phenylethyl)-2-(5-(trifluoromethyl)-1,2,4-oxadiazol-3-yl)pyrimidine-5-carboxamide]
IC50 (Human recombinant HDAC4 [1]): > 30 µM

C[C@H](CN(C)C)NC(=O)c1cnc(-c2noc(C(F)(F)F)n2)nc1 [Example 26, (R)—N-(1-(dimethylamino)propan-2-yl)-2-(5-(trifluoromethyl)-1,2,4-oxadiazol-3-yl)pyrimidine-5-carboxamide]
IC50 (Human recombinant HDAC4 [2]): 0.42 µM
IC50 [3]: > 10 µM
IC50 [4]: > 10 µM

FC(F)(F)c1nc(-c2ccc(NCc3ccccc3)cn2)no1 [Example 27, N-benzyl-6-(5-(trifluoromethyl)-1,2,4-oxadiazol-3-yl)pyridin-3-amine]
IC50 (Human recombinant HDAC4 [2]): 2.8 µM
IC50 [3]: 9.6 µM
IC50 [4]: > 10 µM

FC(F)(F)c1nc(-c2ccc(NCc3ccccc3)nc2)no1 [Example 28, N-benzyl-5-(5-(trifluoromethyl)-1,2,4-oxadiazol-3-yl)pyridin-2-amine]
IC50 (Human recombinant HDAC4 [2]): 0.073 µM
IC50 [3]: > 10 µM
IC50 [4]: 3 µM

CC(Nc1ccc(-c2noc(C(F)(F)F)n2)cn1)c1ccccc1 (centres unmarked) [Example 29, N-(1-phenylethyl)-5-(5-(trifluoromethyl)-1,2,4-oxadiazol-3-yl)pyridin-2-amine]
IC50 (Human recombinant HDAC4 [2]): 0.027 µM
IC50 [3]: 6.2 µM
IC50 [4]: 0.64 µM

FC(F)(F)c1nc(-c2ccc(NCc3cccnc3)nc2)no1 [Example 30, N-(pyridin-3-ylmethyl)-5-(5-(trifluoromethyl)-1,2,4-oxadiazol-3-yl)pyridin-2-amine]
IC50 (Human recombinant HDAC4 [2]): 0.079 µM
IC50 [3]: 6.1 µM
IC50 [4]: 1.8 µM

FC(F)(F)c1nc(-c2ccc(NCc3ccncc3)nc2)no1 [Example 31, N-(pyridin-4-ylmethyl)-5-(5-(trifluoromethyl)-1,2,4-oxadiazol-3-yl)pyridin-2-amine]
IC50 (Human recombinant HDAC4 [2]): 0.041 µM
IC50 [3]: 4.5 µM
IC50 [4]: 1.6 µM

Cc1ccc(CNc2ccc(-c3noc(C(F)(F)F)n3)cn2)cn1 [Example 32, N-((6-methylpyridin-3-yl)methyl)-5-(5-(trifluoromethyl)-1,2,4-oxadiazol-3-yl)pyridin-2-amine]
IC50 (Human recombinant HDAC4 [2]): 0.063 µM
IC50 [3]: 2.4 µM
IC50 [4]: 0.77 µM

FC(F)(F)c1nc(-c2cnc(NCc3ccccc3)c(Cl)c2)no1 [Example 33, N-benzyl-3-chloro-5-(5-(trifluoromethyl)-1,2,4-oxadiazol-3-yl)pyridin-2-amine]
IC50 (Human recombinant HDAC4 [2]): 0.093 µM
IC50 [3]: > 10 µM
IC50 [4]: > 10 µM

C[C@@H](Nc1ncc(-c2noc(C(F)(F)F)n2)cc1Cl)c1ccccc1 [Example 34, (R)-3-chloro-N-(1-phenylethyl)-5-(5-(trifluoromethyl)-1,2,4-oxadiazol-3-yl)pyridin-2-amine]
IC50 (Human recombinant HDAC4 [2]): 0.047 µM
IC50 [3]: 6.3 µM
IC50 [4]: 4.5 µM

FC(F)(F)c1nc(-c2cnc(NCc3ccncc3)c(Cl)c2)no1 [Example 35, 3-chloro-N-(pyridin-4-ylmethyl)-5-(5-(trifluoromethyl)-1,2,4-oxadiazol-3-yl)pyridin-2-amine]
IC50 (Human recombinant HDAC4 [2]): 0.011 µM
IC50 [3]: 1.1 µM
IC50 [4]: 1.8 µM

CC(Nc1ncc(-c2noc(C(F)(F)F)n2)cc1Cl)c1ccncc1 (centres unmarked) [Example 36, 3-chloro-N-(1-(pyridin-4-yl)ethyl)-5-(5-(trifluoromethyl)-1,2,4-oxadiazol-3-yl)pyridin-2-amine]
IC50 (Human recombinant HDAC4 [2]): 0.0064 µM
IC50 [3]: 0.86 µM
IC50 [4]: 1.1 µM

FC(F)(F)c1nc(-c2cnc(NCc3cccnc3)c(Cl)c2)no1 [Example 37, 3-chloro-N-(pyridin-3-ylmethyl)-5-(5-(trifluoromethyl)-1,2,4-oxadiazol-3-yl)pyridin-2-amine]
IC50 (Human recombinant HDAC4 [2]): 0.019 µM
IC50 [3]: 1.2 µM
IC50 [4]: 2 µM

Cc1ccc(CNc2ncc(-c3noc(C(F)(F)F)n3)cc2Cl)cn1 [Example 38, 3-Chloro-N-((6-methylpyridin-3-yl)methyl)-5-(5-(trifluoromethyl)-1,2,4-oxadiazol-3-yl)pyridin-2-amine]
IC50 (Human recombinant HDAC4 [2]): 0.021 µM
IC50 [3]: 1.4 µM
IC50 [4]: 1.55 µM

FC(F)(F)c1nc(-c2cnc(NCc3ccccn3)c(Cl)c2)no1 [Example 39, 3-chloro-N-(pyridin-2-ylmethyl)-5-(5-(trifluoromethyl)-1,2,4-oxadiazol-3-yl)pyridin-2-amine]
IC50 (Human recombinant HDAC4 [2]): 0.037 µM
IC50 [3]: 2.5 µM
IC50 [4]: 1.9 µM

FC(F)(F)c1nc(-c2ccc(NCc3ccccc3)nn2)no1 [Example 40, N-benzyl-6-(5-(trifluoromethyl)-1,2,4-oxadiazol-3-yl)pyridazin-3-amine]
IC50 (Human recombinant HDAC4 [2]): 0.2 µM
IC50 [3]: 7.9 µM
IC50 [4]: 0.84 µM

C[C@@H](Nc1cnc(-c2noc(C(F)(F)F)n2)nc1)c1ccccc1 [Example 41, (R)—N-(1-Phenylethyl)-2-(5-(trifluoromethyl)-1,2,4-oxadiazol-3-yl)pyrimidin-5-amine]
IC50 (Human recombinant HDAC4 [2]): 0.06 µM
IC50 [3]: 4 µM
IC50 [4]: 1.3 µM

C[C@H](Nc1cnc(-c2noc(C(F)(F)F)n2)nc1)c1ccccc1 [Example 42, (S)—N-(1-Phenylethyl)-2-(5-(trifluoromethyl)-1,2,4-oxadiazol-3-yl)pyrimidin-5-amine]
IC50 (Human recombinant HDAC4 [2]): 5 µM
IC50 [3]: > 10 µM
IC50 [4]: 1.9 µM

FC(F)(F)c1nc(-c2ncc(NCc3ccncc3)cn2)no1 [Example 43, N-(Pyridin-4-ylmethyl)-2-(5-(trifluoromethyl)-1,2,4-oxadiazol-3-yl)pyrimidin-5-amine]
IC50 (Human recombinant HDAC4 [2]): 0.19 µM
IC50 [3]: 4.7 µM
IC50 [4]: 1.1 µM

C[C@@H](Nc1ccc(-c2noc(C(F)(F)F)n2)cn1)c1ccncc1 [Example 44]
IC50 (Human recombinant HDAC4 [2]): 0.029 µM
IC50 [3]: 2.7 µM
IC50 [4]: 1.03 µM

C[C@@H](Nc1ccc(-c2noc(C(F)(F)F)n2)nn1)c1ccncc1 [Example 45, (R)—N-(1-(Pyridin-4-yl)ethyl)-6-(5-(trifluoromethyl)-1,2,4-oxadiazol-3-yl)pyridazin-3-amine]
IC50 (Human recombinant HDAC4 [2]): 0.065 µM
IC50 [3]: 3.2 µM
IC50 [4]: 0.61 µM

C[C@H](CN(C)Cc1ccccc1)NC(=O)c1cnc(-c2noc(C(F)(F)F)n2)nc1 [Example 46]
IC50 (Human recombinant HDAC4 [2]): 0.066 µM
IC50 [3]: > 10 µM
IC50 [4]: > 10 µM

O=C(NCc1ccncc1)c1cnc(-c2noc(C(F)(F)F)n2)nc1 [N-(pyridin-4-ylmethyl)-2-(5-(trifluoromethyl)-1,2,4-oxadiazol-3-yl)pyrimidine-5-carboxamide]
IC50 (Human recombinant HDAC4 [1]): > 30 µM
